Laboratory results as given in paper PMC10046369, “Low-Affinity/High-Selectivity Dopamine Transport Inhibition Sufficient to Rescue Cognitive Functions in the Aging Rat” (Biomolecules, 2023).

Experiments:
Test in all cases: biochemical
Design in all cases: KINOMEscan competition binding panel, per cent of control
Details in all cases: read-out: %Ctrl @ 2800nM
[1] = molecular target: T1, PCTK2 (Homo sapiens, UniProt Q00537)
T1 construct: gene CDK17
Procedure, shortened: (§1)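 Competition binding panel (KINOMEscan) across 450 human kinases and disease-relevant mutants, run to the contractor's standard protocol. Values are % control: (test signal − positive control signal)/(negative control signal − positive control signal) × 100, with lower values indicating stronger binding.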

[2] = molecular target: MAP3K15 (Homo sapiens, UniProt Q6ZN16)
Procedure, shortened: as §1

[3] = molecular target: CDK8 (Homo sapiens, UniProt P49336)
Procedure, shortened: as §1

[4] = molecular target: EPHA6 (Homo sapiens, UniProt Q9UF33)
Procedure, shortened: as §1

[5] = molecular target: T2, MLCK (Homo sapiens, UniProt Q32MK0)
T2 construct: gene MYLK3
Procedure, shortened: as §1

[6] = molecular target: LYN (Homo sapiens, UniProt P07948)
Procedure, shortened: as §1

[7] = molecular target: T3, ERK2 (Homo sapiens, UniProt P28482)
T3 construct: gene MAPK1
Procedure, shortened: as §1

[8] = molecular target: MUSK (Homo sapiens, UniProt O15146)
Procedure, shortened: as §1

[9] = molecular target: T4, DMPK2 (Homo sapiens, UniProt Q6DT37)
T4 construct: gene CDC42BPG
Procedure, shortened: as §1

[10] = molecular target: FLT3 (Homo sapiens, UniProt P36888)
Procedure, shortened: as §1

[11] = molecular target: LRRK2 (Homo sapiens, UniProt Q5S007)
Procedure, shortened: as §1

[12] = molecular target: T5, RSK3(Kin.Dom.2-C-terminal) (Homo sapiens, UniProt Q15349)
T5 construct: gene RPS6KA2; Kin.Dom.2-C-terminal
Procedure, shortened: as §1

[13] = molecular target: SGK3 (Homo sapiens, UniProt Q96BR1)
Procedure, shortened: as §1

[14] = molecular target: LRRK2(G2019S) (Homo sapiens, UniProt Q5S007, G2019S)
Procedure, shortened: as §1

[15] = molecular target: SRMS (Homo sapiens, UniProt Q9H3Y6)
Procedure, shortened: as §1

[16] = molecular target: RIOK3 (Homo sapiens, UniProt O14730)
Procedure, shortened: as §1

[17] = molecular target: T6, PCTK3 (Homo sapiens, UniProt Q07002)
T6 construct: gene CDK18
Procedure, shortened: as §1

[18] = molecular target: RET (Homo sapiens, UniProt P07949)
Procedure, shortened: as §1

[19] = molecular target: PAK2 (Homo sapiens, UniProt Q13177)
Procedure, shortened: as §1

[20] = molecular target: FLT3(K663Q) (Homo sapiens, UniProt P36888, K663Q)
Procedure, shortened: as §1

[21] = molecular target: MAST1 (Homo sapiens, UniProt Q9Y2H9)
Procedure, shortened: as §1

[22] = molecular target: CLK4 (Homo sapiens, UniProt Q9HAZ1)
Procedure, shortened: as §1

[23] = molecular target: ALK (Homo sapiens, UniProt Q9UM73)
Procedure, shortened: as §1

[24] = molecular target: BMPR1A (Homo sapiens, UniProt P36894)
Procedure, shortened: as §1

[25] = molecular target: NEK11 (Homo sapiens, UniProt Q8NG66)
Procedure, shortened: as §1

[26] = molecular target: RIOK2 (Homo sapiens, UniProt Q9BVS4)
Procedure, shortened: as §1

Chain of ALK (Q9UM73 whole entry): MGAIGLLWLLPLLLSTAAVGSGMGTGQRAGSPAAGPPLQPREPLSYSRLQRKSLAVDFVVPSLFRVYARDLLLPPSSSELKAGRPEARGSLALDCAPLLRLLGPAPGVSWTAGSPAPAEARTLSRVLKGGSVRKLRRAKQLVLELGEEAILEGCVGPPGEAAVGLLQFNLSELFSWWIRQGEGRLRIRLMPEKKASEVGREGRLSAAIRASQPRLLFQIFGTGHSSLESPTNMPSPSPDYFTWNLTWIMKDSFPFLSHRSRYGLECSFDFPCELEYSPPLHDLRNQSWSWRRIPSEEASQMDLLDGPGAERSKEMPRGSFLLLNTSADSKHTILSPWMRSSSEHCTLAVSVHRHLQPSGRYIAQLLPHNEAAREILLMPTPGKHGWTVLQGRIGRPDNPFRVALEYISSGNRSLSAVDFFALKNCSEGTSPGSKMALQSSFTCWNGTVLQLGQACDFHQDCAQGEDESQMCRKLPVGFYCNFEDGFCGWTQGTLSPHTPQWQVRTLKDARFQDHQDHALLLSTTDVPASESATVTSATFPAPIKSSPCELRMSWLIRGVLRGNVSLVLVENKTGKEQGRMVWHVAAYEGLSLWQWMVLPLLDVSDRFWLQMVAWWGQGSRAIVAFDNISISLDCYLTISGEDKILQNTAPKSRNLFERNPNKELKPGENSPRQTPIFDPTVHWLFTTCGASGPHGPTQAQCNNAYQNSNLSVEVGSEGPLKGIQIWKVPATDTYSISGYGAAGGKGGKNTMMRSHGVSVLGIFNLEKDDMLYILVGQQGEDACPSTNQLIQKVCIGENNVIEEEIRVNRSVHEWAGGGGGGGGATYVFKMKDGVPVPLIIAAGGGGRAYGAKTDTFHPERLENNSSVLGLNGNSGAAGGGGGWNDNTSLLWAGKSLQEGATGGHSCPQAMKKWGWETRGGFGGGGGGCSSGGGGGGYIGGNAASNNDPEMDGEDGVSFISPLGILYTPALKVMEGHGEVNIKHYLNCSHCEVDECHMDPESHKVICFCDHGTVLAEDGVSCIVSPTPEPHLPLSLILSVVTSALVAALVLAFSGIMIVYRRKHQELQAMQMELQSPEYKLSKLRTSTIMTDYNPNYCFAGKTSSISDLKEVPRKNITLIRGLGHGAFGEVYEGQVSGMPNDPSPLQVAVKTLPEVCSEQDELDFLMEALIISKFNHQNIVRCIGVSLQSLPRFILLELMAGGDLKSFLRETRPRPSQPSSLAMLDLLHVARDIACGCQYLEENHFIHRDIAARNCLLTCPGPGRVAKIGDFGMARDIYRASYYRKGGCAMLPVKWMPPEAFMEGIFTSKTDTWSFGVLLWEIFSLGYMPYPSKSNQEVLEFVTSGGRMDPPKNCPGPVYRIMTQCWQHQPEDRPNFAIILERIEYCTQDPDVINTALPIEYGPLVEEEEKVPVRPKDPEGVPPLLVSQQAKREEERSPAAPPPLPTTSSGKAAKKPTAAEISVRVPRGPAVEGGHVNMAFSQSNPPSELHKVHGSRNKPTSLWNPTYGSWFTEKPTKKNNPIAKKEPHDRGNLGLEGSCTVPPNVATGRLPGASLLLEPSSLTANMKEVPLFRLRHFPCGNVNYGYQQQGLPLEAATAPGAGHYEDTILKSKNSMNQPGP
T5 sequence (Q15349 whole entry): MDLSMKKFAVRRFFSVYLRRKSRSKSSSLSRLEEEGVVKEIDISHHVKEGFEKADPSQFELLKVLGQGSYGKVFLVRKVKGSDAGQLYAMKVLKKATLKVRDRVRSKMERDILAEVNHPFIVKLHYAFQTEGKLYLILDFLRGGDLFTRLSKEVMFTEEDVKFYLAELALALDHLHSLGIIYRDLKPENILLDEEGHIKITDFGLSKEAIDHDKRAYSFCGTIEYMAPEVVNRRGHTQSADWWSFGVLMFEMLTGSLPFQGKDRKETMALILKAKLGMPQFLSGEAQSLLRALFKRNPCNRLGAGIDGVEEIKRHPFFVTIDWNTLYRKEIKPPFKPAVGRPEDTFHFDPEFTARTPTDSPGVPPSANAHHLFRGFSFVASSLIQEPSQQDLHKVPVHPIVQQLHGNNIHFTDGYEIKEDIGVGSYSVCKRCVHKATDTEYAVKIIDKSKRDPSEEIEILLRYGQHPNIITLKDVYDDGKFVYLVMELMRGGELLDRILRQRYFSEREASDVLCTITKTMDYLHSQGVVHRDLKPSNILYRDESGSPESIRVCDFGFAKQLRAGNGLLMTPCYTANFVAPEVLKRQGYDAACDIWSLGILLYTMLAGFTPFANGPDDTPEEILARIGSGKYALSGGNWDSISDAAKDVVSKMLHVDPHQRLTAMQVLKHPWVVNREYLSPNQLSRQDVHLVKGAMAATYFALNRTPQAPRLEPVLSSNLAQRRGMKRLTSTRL
Chain of LYN (P07948 whole entry): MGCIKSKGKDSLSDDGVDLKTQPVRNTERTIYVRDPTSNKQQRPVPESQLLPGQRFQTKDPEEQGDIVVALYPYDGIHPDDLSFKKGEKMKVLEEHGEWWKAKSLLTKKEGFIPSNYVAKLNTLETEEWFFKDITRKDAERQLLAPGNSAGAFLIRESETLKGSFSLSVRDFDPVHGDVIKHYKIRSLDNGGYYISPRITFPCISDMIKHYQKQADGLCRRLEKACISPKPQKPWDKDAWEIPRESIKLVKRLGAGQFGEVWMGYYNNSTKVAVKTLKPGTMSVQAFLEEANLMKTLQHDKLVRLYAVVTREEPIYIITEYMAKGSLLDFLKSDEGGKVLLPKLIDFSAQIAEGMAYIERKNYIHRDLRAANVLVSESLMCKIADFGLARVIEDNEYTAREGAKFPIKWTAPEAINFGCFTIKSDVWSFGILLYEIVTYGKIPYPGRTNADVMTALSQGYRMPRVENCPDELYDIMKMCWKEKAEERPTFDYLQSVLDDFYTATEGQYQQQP
Chain of RET (P07949 whole entry): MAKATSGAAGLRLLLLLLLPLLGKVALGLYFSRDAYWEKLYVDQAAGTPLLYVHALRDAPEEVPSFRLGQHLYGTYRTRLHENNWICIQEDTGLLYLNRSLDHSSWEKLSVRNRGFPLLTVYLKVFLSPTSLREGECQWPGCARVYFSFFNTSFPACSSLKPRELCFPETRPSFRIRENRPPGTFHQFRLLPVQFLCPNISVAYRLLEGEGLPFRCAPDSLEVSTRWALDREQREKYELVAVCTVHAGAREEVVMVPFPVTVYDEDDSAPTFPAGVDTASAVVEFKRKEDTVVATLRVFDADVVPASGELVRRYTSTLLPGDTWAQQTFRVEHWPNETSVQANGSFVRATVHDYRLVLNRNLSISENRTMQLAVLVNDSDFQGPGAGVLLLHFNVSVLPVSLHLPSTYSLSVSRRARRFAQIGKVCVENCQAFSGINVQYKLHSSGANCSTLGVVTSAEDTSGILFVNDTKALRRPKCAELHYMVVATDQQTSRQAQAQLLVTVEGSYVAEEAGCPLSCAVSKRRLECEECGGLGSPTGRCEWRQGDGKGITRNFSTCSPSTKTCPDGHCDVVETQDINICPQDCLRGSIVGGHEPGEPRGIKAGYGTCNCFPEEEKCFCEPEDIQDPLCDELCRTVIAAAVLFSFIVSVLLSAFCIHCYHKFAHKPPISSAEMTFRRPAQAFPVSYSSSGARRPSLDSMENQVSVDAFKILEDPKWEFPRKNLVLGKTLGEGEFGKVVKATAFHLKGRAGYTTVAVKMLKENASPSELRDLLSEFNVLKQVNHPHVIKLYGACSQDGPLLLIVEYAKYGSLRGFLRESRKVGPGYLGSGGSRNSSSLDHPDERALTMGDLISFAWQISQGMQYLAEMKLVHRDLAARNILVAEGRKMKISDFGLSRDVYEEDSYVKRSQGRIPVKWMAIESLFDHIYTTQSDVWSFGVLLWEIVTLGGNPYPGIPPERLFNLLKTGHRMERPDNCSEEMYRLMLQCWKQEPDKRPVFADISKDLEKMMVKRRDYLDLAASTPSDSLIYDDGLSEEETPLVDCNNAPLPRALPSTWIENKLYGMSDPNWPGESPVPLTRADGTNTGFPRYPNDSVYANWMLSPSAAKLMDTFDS
Chain of CLK4 (Q9HAZ1 whole entry): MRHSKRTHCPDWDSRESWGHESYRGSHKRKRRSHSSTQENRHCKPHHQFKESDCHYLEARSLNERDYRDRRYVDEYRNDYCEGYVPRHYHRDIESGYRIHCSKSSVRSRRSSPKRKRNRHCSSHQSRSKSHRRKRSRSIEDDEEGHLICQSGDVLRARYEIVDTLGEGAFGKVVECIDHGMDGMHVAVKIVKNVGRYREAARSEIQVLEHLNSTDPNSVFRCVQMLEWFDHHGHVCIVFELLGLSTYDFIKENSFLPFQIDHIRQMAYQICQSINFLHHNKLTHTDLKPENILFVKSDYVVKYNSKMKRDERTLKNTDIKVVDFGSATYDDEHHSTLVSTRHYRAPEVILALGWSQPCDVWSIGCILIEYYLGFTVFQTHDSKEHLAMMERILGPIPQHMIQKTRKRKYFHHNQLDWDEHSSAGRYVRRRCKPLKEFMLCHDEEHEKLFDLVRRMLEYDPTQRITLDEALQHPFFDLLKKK
Chain of PAK2 (Q13177 whole entry): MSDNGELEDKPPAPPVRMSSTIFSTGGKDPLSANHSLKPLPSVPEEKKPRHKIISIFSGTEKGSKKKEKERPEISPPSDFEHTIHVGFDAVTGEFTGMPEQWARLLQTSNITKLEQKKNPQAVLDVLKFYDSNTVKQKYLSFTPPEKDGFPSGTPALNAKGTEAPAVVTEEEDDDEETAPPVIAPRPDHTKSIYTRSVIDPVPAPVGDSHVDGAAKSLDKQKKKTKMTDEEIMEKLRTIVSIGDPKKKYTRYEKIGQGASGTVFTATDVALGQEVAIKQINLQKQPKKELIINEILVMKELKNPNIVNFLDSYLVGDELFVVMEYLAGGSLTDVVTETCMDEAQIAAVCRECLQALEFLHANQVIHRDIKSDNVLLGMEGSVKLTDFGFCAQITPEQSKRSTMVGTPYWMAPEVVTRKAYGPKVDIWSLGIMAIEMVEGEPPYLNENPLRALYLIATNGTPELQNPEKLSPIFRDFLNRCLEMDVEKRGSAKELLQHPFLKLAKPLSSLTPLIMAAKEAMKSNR

[O-][S@@+](Cc1cncs1)C(c1ccccc1)c1ccccc1 [S-CE-123, (S)-5-((Benzhydrylsulfinyl)Methyl)Thiazole]
remaining binding at 2.8 µM [1]: 93% | remaining binding at 2.8 µM [2]: 84% | remaining binding at 2.8 µM [3]: 96% | remaining binding at 2.8 µM [4]: 100% | remaining binding at 2.8 µM [5]: 96% | remaining binding at 2.8 µM [6]: 83% | remaining binding at 2.8 µM [7]: 95% | remaining binding at 2.8 µM [8]: 100% | remaining binding at 2.8 µM [9]: 88% | remaining binding at 2.8 µM [10]: 96% | remaining binding at 2.8 µM [11]: 100% | remaining binding at 2.8 µM [12]: 87% | remaining binding at 2.8 µM [13]: 100% | remaining binding at 2.8 µM [14]: 96% | remaining binding at 2.8 µM [15]: 99% | remaining binding at 2.8 µM [16]: 97% | remaining binding at 2.8 µM [17]: 99% | remaining binding at 2.8 µM [18]: 96% | remaining binding at 2.8 µM [19]: 77% | remaining binding at 2.8 µM [20]: 96% | remaining binding at 2.8 µM [21]: 94% | remaining binding at 2.8 µM [22]: 100% | remaining binding at 2.8 µM [23]: 100% | remaining binding at 2.8 µM [24]: 100% | remaining binding at 2.8 µM [25]: 100% | remaining binding at 2.8 µM [26]: 99%
